Reference: patent US10065950B2, “Substituted thiazoles as HIV integrase inhibitors” (Japan Tobacco Inc., priority 2010, dated 2018)

These compounds were tested against HIV-1 pNL4-3 integrase (Human immunodeficiency virus type 1 group M subtype B (isolate NY5) (HIV-1), UniProt P12497) (assay: Determination of enzyme (HIV integrase) inhibitory activity). Conditions: calculated from inhibition rate (fluorescence).
Assay type: biochemical
How it was run: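 Full-length pNL4-3 integrase from E. coli (0.75 μM stock) reacted 60 min at 37° C with compound and biotinylated donor DNA bound to streptavidin plates, in MOPS buffer with 5 mM MgCl2 and 10% DMSO. Digoxigenin-labelled target DNA (25 nM stock) then added for 20 min; strand transfer read by peroxidase anti-digoxigenin fluorescence (Ex 325/Em 420 nm).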

First: CCNC(=O)[C@@]1(C)CN(C(C)C)C(=O)c2c(O)c(=O)c(-c3ncc(Cc4ccc(F)cc4)s3)cn21 [Example 239]
Second: CC(C)N1C[C@@](C)(C(=O)NCC2CC2)n2cc(-c3ncc(Cc4ccc(F)cc4)s3)c(=O)c(O)c2C1=O [Example 246]
The IC50 of the first is 1.9-fold higher: 16 nM for the first, 8.4 nM for the second. The second is the more potent here.

`COC[C@H]1CN(C(C)C)C(=O)c2c(O)c(=O)c(-c3nnc(Cc4ccc(OC)cc4)s3)cn21` [Example 240] and `COC[C@H]1CN(C(C)C)C(=O)c2c(O)c(=O)c(-c3nnc(Cc4ccc(C(F)(F)F)cc4)s3)cn21` [Example 244] are within 1.5-fold of each other in IC50: 52 nM for the first, 74 nM for the second.

`COC[C@H]1CN(C(C)C)C(=O)c2c(O)c(=O)c(-c3nnc(CCc4ccc(F)cc4)s3)cn21` [Example 241] and `COC[C@H]1CN(C(C)C)C(=O)c2c(O)c(=O)c(-c3nnc(CCCc4ccc(F)cc4)s3)cn21` [Example 242] are within 1.5-fold of each other in IC50: 14 nM for the first, 13 nM for the second.

Compared with `COC[C@H]1CN(C(C)C)C(=O)c2c(O)c(=O)c(-c3nnc(Cc4ccc(F)c(Cl)c4)s3)cn21` [Example 243], `COC[C@H]1CN(C(C)C)C(=O)c2c(O)c(=O)c(-c3nnc(Cc4ccc(F)c(OC)c4)s3)cn21` [Example 250] is 2.2-fold higher in IC50: 7.6 nM for the first, 17 nM for the second. The first is the more potent here.

Compared with `CC(C)N1C[C@@](C)(C(=O)NC2CC2)n2cc(-c3ncc(Cc4ccc(F)cc4)s3)c(=O)c(O)c2C1=O` [Example 245], `CCNC(=O)[C@@]1(C)CN([C@@H](C)C2CC2)C(=O)c2c(O)c(=O)c(-c3ncc(Cc4ccc(F)cc4)s3)cn21` [Example 276] is 2-fold higher in IC50: 8.1 nM for the first, 16 nM for the second. The first is the more potent here.

`COC[C@@H]1[C@H](C)n2cc(-c3ncc(Cc4ccc(F)cc4)s3)c(=O)c(O)c2C(=O)N1C(C)C` [Example 247] and `CCN1C(=O)c2c(O)c(=O)c(-c3ncc(Cc4ccc(F)cc4)s3)cn2[C@@H](C)[C@H]1COC` [Example 260] are within 1.5-fold of each other in IC50: 10 nM for the first, 12 nM for the second.

First: CCN1C[C@@](C)(C(=O)N(C)C)n2cc(-c3ncc(Cc4ccc(F)cc4)s3)c(=O)c(O)c2C1=O [Example 248]
Second: CN(C)C(=O)[C@]1(C)CN(C)C(=O)c2c(O)c(=O)c(-c3ncc(Cc4ccc(F)cc4)s3)cn21 [Example 264]
The IC50 of the first is 1.6-fold higher: 14 nM for the first, 8.5 nM for the second. The second is the more potent here.

`CCNC(=O)[C@]1(C)CN(CC)C(=O)c2c(O)c(=O)c(-c3ncc(Cc4ccc(F)cc4)s3)cn21` [Example 249] and `CCNC(=O)[C@]1(C)CN(C2CC2)C(=O)c2c(O)c(=O)c(-c3ncc(Cc4ccc(F)cc4)s3)cn21` [Example 267] are within 1.5-fold of each other in IC50: 12 nM for the first, 11 nM for the second.

`COC[C@H]1CN(C(C)C)C(=O)c2c(O)c(=O)c(-c3nnc(Cc4ccc(F)cc4C4CC4)s3)cn21` [Example 251] and `COC[C@H]1CN([C@H](C)C2CC2)C(=O)c2c(O)c(=O)c(-c3nnc(Cc4ccc(F)cc4)s3)cn21` [Example 302] are within 1.5-fold of each other in IC50: 11 nM for the first, 9.9 nM for the second.

`CCN1C(=O)c2c(O)c(=O)c(-c3ncc(Cc4ccc(F)cc4)s3)cn2C[C@@]1(C)C(=O)NC` [Example 252] and `CCN1C(=O)c2c(O)c(=O)c(-c3ncc(Cc4ccc(F)cc4)s3)cn2C[C@]1(C)C(=O)NC` [Example 292] are within 1.5-fold of each other in IC50: 9.2 nM for the first, 7.3 nM for the second.

`CCN1C(=O)c2c(O)c(=O)c(-c3ncc(Cc4ccc(F)cc4)s3)cn2C[C@@]1(C)C(=O)N(C)C` [Example 253] and `CCN1C(=O)c2c(O)c(=O)c(-c3ncc(Cc4ccc(F)cc4)s3)cn2C[C@]1(C)C(=O)N(C)C` [Example 293] are within 1.5-fold of each other in IC50: 7.7 nM for the first, 9.6 nM for the second.

`CCN1C(=O)c2c(O)c(=O)c(-c3ncc(Cc4ccc(F)cc4)s3)cn2C[C@@]1(C)C(=O)N1CCCC1` [Example 254] and `CCN1C(=O)c2c(O)c(=O)c(-c3ncc(Cc4ccc(F)cc4)s3)cn2C[C@]1(C)C(=O)N1CCCC1` [Example 294] are within 1.5-fold of each other in IC50: 7.6 nM for the first, 11 nM for the second.

`C[C@]1(C(=O)N2CCC2)CN(CC2CC2)C(=O)c2c(O)c(=O)c(-c3ncc(Cc4ccc(F)cc4)s3)cn21` [Example 255] and `CCN1C[C@@](C)(C(=O)N2CCC2)n2cc(-c3ncc(Cc4ccc(F)cc4)s3)c(=O)c(O)c2C1=O` [Example 271] are within 1.5-fold of each other in IC50: 9 nM for the first, 11 nM for the second.

`COC[C@H]1[C@@H](C)N(C(C)C)C(=O)c2c(O)c(=O)c(-c3nnc(Cc4ccc(F)cc4)s3)cn21` [Example 256] and `COC[C@H]1[C@H](C)N(C(C)C)C(=O)c2c(O)c(=O)c(-c3nnc(Cc4ccc(F)cc4)s3)cn21` [Example 285] are within 1.5-fold of each other in IC50: 8.2 nM for the first, 11 nM for the second.

`COC[C@@H]1[C@H](C)n2cc(-c3nnc(Cc4ccc(F)cc4)s3)c(=O)c(O)c2C(=O)N1CC1CC1` [Example 257] and `COC[C@H]1[C@@H](C)N(CC2CC2)C(=O)c2c(O)c(=O)c(-c3nnc(Cc4ccc(F)cc4)s3)cn21` [Example 259] are within 1.5-fold of each other in IC50: 9.1 nM for the first, 9 nM for the second.

`CCN1C(=O)c2c(O)c(=O)c(-c3nnc(Cc4ccc(F)cc4)s3)cn2[C@@H](COC)[C@H]1C` [Example 258] and `CCN1C(=O)c2c(O)c(=O)c(-c3nnc(Cc4ccc(F)cc4)s3)cn2[C@@H](COC)[C@@H]1C` [Example 284] are within 1.5-fold of each other in IC50: 9.3 nM for the first, 11 nM for the second.

`CCN1C(=O)c2c(O)c(=O)c(-c3ncc(Cc4ccc(F)cc4)s3)cn2[C@@H](COC)[C@H]1C` [Example 261] and `CCN1C(=O)c2c(O)c(=O)c(-c3nnc(Cc4ccc(F)cc4)s3)cn2[C@H](COC)[C@H]1C` [Example 289] are within 1.5-fold of each other in IC50: 11 nM for the first, 10 nM for the second.

`COC1CN(C(=O)[C@@]2(C)CN(CC3CC3)C(=O)c3c(O)c(=O)c(-c4ncc(Cc5ccc(F)cc5)s4)cn32)C1` [Example 262] and `CCN1C[C@](C)(C(=O)N2CC(OC)C2)n2cc(-c3ncc(Cc4ccc(F)cc4)s3)c(=O)c(O)c2C1=O` [Example 263] are within 1.5-fold of each other in IC50: 10 nM for the first, 9 nM for the second.

`CCN(C)C(=O)[C@]1(C)CN(C)C(=O)c2c(O)c(=O)c(-c3ncc(Cc4ccc(F)cc4)s3)cn21` [Example 265] and `CN1C[C@@](C)(C(=O)N2CCC2)n2cc(-c3ncc(Cc4ccc(F)cc4)s3)c(=O)c(O)c2C1=O` [Example 266] are within 1.5-fold of each other in IC50: 9.3 nM for the first, 11 nM for the second.

`C[C@@]1(C(=O)N2CCC2)CN(C2CC2)C(=O)c2c(O)c(=O)c(-c3ncc(Cc4ccc(F)cc4)s3)cn21` [Example 268] and `C[C@@H](C1CC1)N1C[C@](C)(C(=O)N2CCC2)n2cc(-c3ncc(Cc4ccc(F)cc4)s3)c(=O)c(O)c2C1=O` [Example 273] are within 1.5-fold of each other in IC50: 15 nM for the first, 14 nM for the second.

First: CCN1C[C@](C)(CO)n2cc(-c3nnc(Cc4ccc(F)cc4)s3)c(=O)c(O)c2C1=O [Example 269]
Second: CCN1C[C@](C)(COCCOC)n2cc(-c3nnc(Cc4ccc(F)cc4)s3)c(=O)c(O)c2C1=O [Example 296]
The IC50 of the first is 2-fold lower: 9.4 nM for the first, 19 nM for the second. The first is the more potent here.

`CCN1C(=O)c2c(O)c(=O)c(-c3nnc(Cc4ccc(F)cc4)s3)cn2C[C@@]1(C)COC` [Example 270] and `CCN1C(=O)c2c(O)c(=O)c(-c3nnc(Cc4ccc(F)cc4)s3)cn2CC1(COC)COC` [Example 301] are within 1.5-fold of each other in IC50: 9.5 nM for the first, 8 nM for the second.

`COC1CN(C(=O)CC2CN(C(C)C)C(=O)c3c(O)c(=O)c(-c4ncc(Cc5ccc(F)cc5F)s4)cn32)C1` (stereo not drawn) [Example 272] and `COC1CN(C(=O)[C@@]2(C)CN([C@@H](C)C3CC3)C(=O)c3c(O)c(=O)c(-c4ncc(Cc5ccc(F)cc5)s4)cn32)C1` [Example 274] are within 1.5-fold of each other in IC50: 8.9 nM for the first, 12 nM for the second.

`C[C@@H](C1CC1)N1C[C@](C)(C(=O)N(C)C)n2cc(-c3ncc(Cc4ccc(F)cc4)s3)c(=O)c(O)c2C1=O` [Example 275] and `C[C@H](C1CC1)N1C[C@](C)(C(=O)N(C)C)n2cc(-c3ncc(Cc4ccc(F)cc4)s3)c(=O)c(O)c2C1=O` [Example 282] are within 1.5-fold of each other in IC50: 14 nM for the first, 15 nM for the second.

`COC[C@H]1CN(C(C)C)C(=O)c2c(O)c(=O)c(-c3nnc(Cc4cc(OC)c(F)cc4F)s3)cn21` [Example 277] and `COC[C@@H]1[C@@H](C)N(C(C)C)C(=O)c2c(O)c(=O)c(-c3nnc(Cc4ccc(F)cc4)s3)cn21` [Example 288] are within 1.5-fold of each other in IC50: 12 nM for the first, 8.8 nM for the second.

`CC[C@@H]1Cn2cc(-c3nnc(Cc4ccc(F)cc4)s3)c(=O)c(O)c2C(=O)N1C(C)C` [Example 278] and `CC[C@@H]1Cn2cc(-c3nnc(Cc4ccc(F)cc4)s3)c(=O)c(O)c2C(=O)N1CC` [Example 291] are within 1.5-fold of each other in IC50: 9.9 nM for the first, 8.7 nM for the second.

`C[C@@H]1Cn2cc(-c3nnc(Cc4ccc(F)cc4)s3)c(=O)c(O)c2C(=O)N1CC1CC1` [Example 279] and `CC[C@@H]1Cn2cc(-c3nnc(Cc4ccc(F)cc4)s3)c(=O)c(O)c2C(=O)N1CC1CC1` [Example 303] are within 1.5-fold of each other in IC50: 6.3 nM for the first, 5.8 nM for the second.

`C[C@H](C1CC1)N1C[C@](C)(C(=O)N2CCC2)n2cc(-c3ncc(Cc4ccc(F)cc4)s3)c(=O)c(O)c2C1=O` [Example 280] and `COC1CN(C(=O)[C@@]2(C)CN([C@H](C)C3CC3)C(=O)c3c(O)c(=O)c(-c4ncc(Cc5ccc(F)cc5)s4)cn32)C1` [Example 281] are the same in IC50: 16 nM for the first, 16 nM for the second.

`CCNC(=O)[C@@]1(C)CN([C@H](C)C2CC2)C(=O)c2c(O)c(=O)c(-c3ncc(Cc4ccc(F)cc4)s3)cn21` [Example 283] and `CC(C)N1C[C@](C)(C(=O)N2CCC(=O)C2)n2cc(-c3ncc(Cc4ccc(F)cc4)s3)c(=O)c(O)c2C1=O` [Example 290] are within 1.5-fold of each other in IC50: 18 nM for the first, 14 nM for the second.

`CCN1C(=O)c2c(O)c(=O)c(-c3nnc(Cc4ccc(F)cc4)s3)cn2C[C@H]1C(C)C` [Example 286] and `CCN1C(=O)c2c(O)c(=O)c(-c3nnc(Cc4ccc(F)cc4)s3)cn2C[C@@H]1C(C)C` [Example 287] are within 1.5-fold of each other in IC50: 7.8 nM for the first, 8 nM for the second.

`CCC(CC)N1C(=O)c2c(O)c(=O)c(-c3nnc(Cc4ccc(F)cc4)s3)cn2C[C@H]1COC` [Example 295] and `CCN1C(=O)c2c(O)c(=O)c(-c3nnc(Cc4ccc(F)cc4)s3)cn2[C@@H](C)[C@@H]1COC` [Example 298] are within 1.5-fold of each other in IC50: 12 nM for the first, 9 nM for the second.

First: COCCOC[C@@]1(C)CN(C2CC2)C(=O)c2c(O)c(=O)c(-c3nnc(Cc4ccc(F)cc4)s3)cn21 [Example 297]
Second: COC[C@H]1[C@H](C)n2cc(-c3nnc(Cc4ccc(F)cc4)s3)c(=O)c(O)c2C(=O)N1C(C)C [Example 299]
The IC50 of the first is 2-fold higher: 20 nM for the first, 9.8 nM for the second.

`CCN1C(=O)c2c(O)c(=O)c(-c3nnc(CCc4ccc(F)cc4F)s3)cn2C[C@H]1COC` [Example 300] and `COC[C@@H]1[C@@H](C)n2cc(-c3nnc(Cc4ccc(F)cc4)s3)c(=O)c(O)c2C(=O)N1C(C)C` [Example 304] are within 1.5-fold of each other in IC50: 9 nM for the first, 9.1 nM for the second.
